Assay [1] relates to MDA-MB-361. In words: Inhibition of cellular proliferation in MDA-361 (breast) tumor cells. The class given is functional, cell-based. The following applies: Homo sapiens.
Assay [2] relates to Jurkat. Put plainly: Inhibition of cellular proliferation in jurkat (T cells). The class given is functional, cell-based. The following applies: Homo sapiens.
The test system of assay [3] is MDA-MB-361. In words: Inhibition of calcium influx in MDA-361 (breast) tumor cells. The class given is functional, cell-based. The following applies: Homo sapiens.
Assay [4] has as its system LNCaP. Put plainly: (§1) Inhibition of calcium influx in LNCaP (prostate). The class given is functional, cell-based. The following applies: Homo sapiens, Prostate gland.
For assay [5], the system named is LNCaP. In words: Inhibition of cellular proliferation in LNCaP (prostate). It is filed as functional, cell-based. Conditions: Homo sapiens.
The subject of assay [6] is Jurkat. Put plainly: Inhibition of calcium influx in jurkat (T cells). It is filed as functional, cell-based. The following applies: Homo sapiens.
The subject of assay [7] is LNCaP. The assay is described as §1. It is filed as functional, cell-based, Homo sapiens, Prostate gland.

In general, IC50 refers to the concentration that inhibits the measured activity by half. For the compound `COc1ccc(CCN2CCCC(COC(c3ccc(Cl)cc3)c3ccc(Cl)cc3)C2)cc1` (centres undefined), the IC50 is 13 µM in the assay on MDA-MB-361 [1]; 9.6 µM in the assay on Jurkat [2]; 30 µM with MDA-MB-361 [3]; 5 µM in the assay with LNCaP [4]; 5 µM with LNCaP [5]; 10 µM in the assay on Jurkat [6].
In the case of `COc1ccc(CCN2CCC(COC(c3ccccc3)c3ccccc3)CC2)cc1`, the IC50 with MDA-MB-361 [1] stood at 10 µM; with Jurkat [2] it was 8.3 µM; in the assay with MDA-MB-361 [3] it was 30 µM; in the assay with LNCaP [4], 15 µM; with LNCaP [5] it was 5 µM; in the assay on Jurkat [6], 20 µM.
Regarding `Oc1ccc(CCN2CCC[C@H]2COC(c2ccccc2)c2ccc(Cl)cc2)cc1` (some centres undefined), the IC50 in the assay on MDA-MB-361 [1] came out at 11 µM; in the assay on Jurkat [2], 6 µM; in the assay with MDA-MB-361 [3], 30 µM; in the assay with LNCaP [4] it was 10 µM; in the assay with LNCaP [5], 3 µM; in the assay with Jurkat [6], 10 µM.
`COc1ccc(CCN2CCC[C@H]2COC(c2ccccc2)c2ccc(Cl)c(Cl)c2)cc1` (some centres undefined): the IC50 was 11 µM in the assay with MDA-MB-361 [1]; 6 µM in the assay with Jurkat [2]; 10 µM in the assay with MDA-MB-361 [3]; 10 µM in the assay on LNCaP [4]; 4 µM in the assay on LNCaP [5]; 3 µM with Jurkat [6].
As to `COc1cccc(CCN2CCC[C@H]2COC(c2ccccc2)c2ccc(Cl)cc2)c1` (some centres undefined), the IC50 in the assay with MDA-MB-361 [1] was found to be 29 µM; with Jurkat [2], 5 µM; in the assay on MDA-MB-361 [3] it was 30 µM; with LNCaP [4], 10 µM; in the assay with LNCaP [5], 3.2 µM; in the assay with Jurkat [6] it was 3 µM.
For `CN1CCC[C@H]1COC(c1ccccc1)c1ccc(Cl)cc1` (some centres undefined), the IC50 with MDA-MB-361 [1] came out at 47 µM; in the assay on Jurkat [2], 60 µM; in the assay with MDA-MB-361 [3], 100 µM; in the assay on LNCaP [4], 50 µM; with LNCaP [5], 17 µM; in the assay on Jurkat [6], 30 µM.
For the compound `COc1ccc(CCN2CCCCC2COC(c2ccc(Cl)cc2)c2ccc(Cl)cc2)cc1` (centres undefined), the IC50 with MDA-MB-361 [1] turned out to be 22 µM; in the assay on Jurkat [2], 9 µM; with MDA-MB-361 [3] it was 30 µM; in the assay on LNCaP [4] it was 7 µM; with LNCaP [5], 4 µM; in the assay with Jurkat [6] it was 15 µM.
`COc1ccc(CCN2CCC[C@H]2COCc2ccccc2)cc1`: the IC50 with MDA-MB-361 [1] came out at 83 µM; in the assay on Jurkat [2], 108 µM; in the assay on MDA-MB-361 [3] it was 20 µM; in the assay on LNCaP [4], 100 µM; with LNCaP [5], 33 µM; in the assay with Jurkat [6], 100 µM.
Take `Clc1ccc(C(OC[C@@H]2CCCN2CCc2ccccc2)c2ccccc2)cc1` (some centres undefined): the IC50 was 27 µM with MDA-MB-361 [1]; 11 µM in the assay with Jurkat [2]; 3 µM with MDA-MB-361 [3]; 30 µM in the assay with LNCaP [4]; 8 µM in the assay on LNCaP [5]; under 1 µM in the assay on Jurkat [6].
Consider `COc1ccc(CCN2CCC[C@H]2COC(c2ccccc2)c2ccc(F)cc2)cc1` (some centres undefined), for which the IC50 in the assay with MDA-MB-361 [1] came out at 14 µM; in the assay on Jurkat [2] it was 13 µM; in the assay on MDA-MB-361 [3], 20 µM; with LNCaP [4], 10 µM; in the assay on LNCaP [5] it was 2 µM; with Jurkat [6] it was 3 µM.
On to `COc1ccc(CCN2CCC[C@H]2COC(c2ccc(Cl)cc2)c2ccc(Cl)cc2)cc1`, for which the IC50 in the assay with MDA-MB-361 [1] was found to be 11 µM; in the assay on Jurkat [2], 3.6 µM; with MDA-MB-361 [3], 25 µM; with LNCaP [4], 4 µM; in the assay with LNCaP [5], 3 µM; with Jurkat [6], 5 µM.
In the case of `COc1ccc(CCN2CCC[C@H]2COCc2ccc(Cl)cc2)cc1`, the IC50 in the assay on MDA-MB-361 [1] came to 15 µM; in the assay on Jurkat [2] it was 18 µM; with MDA-MB-361 [3], 100 µM; in the assay with LNCaP [4], 10 µM; in the assay on LNCaP [5] it was 14 µM; with Jurkat [6], 25 µM.
Take `COc1ccc(CCN2CCC[C@H]2COC(c2ccc(C)cc2)c2ccc(C)cc2)cc1`: the IC50 with MDA-MB-361 [1] came out at 40 µM; with Jurkat [2], 11 µM; in the assay with MDA-MB-361 [3], 20 µM; in the assay with LNCaP [4], 5 µM; in the assay with LNCaP [5] it was 6 µM; with Jurkat [6], 3 µM.
`COc1ccc(CCN2CCC[C@H]2COC(c2ccccc2)c2ccc(Br)cc2)cc1` (some centres undefined): the IC50 amounted to 40 µM in the assay with Jurkat [2]; 100 µM in the assay with MDA-MB-361 [3]; 15 µM with LNCaP [4]; 15 µM with LNCaP [5]; 30 µM in the assay with Jurkat [6].
Turning to `COc1ccc(CCN2CCC(COC(c3ccccc3)c3ccc(Cl)cc3)CC2)cc1` (centres undefined), the IC50 in the assay on MDA-MB-361 [1] came out at 10.4 µM; in the assay with Jurkat [2], 8.4 µM; with MDA-MB-361 [3], 25 µM; with LNCaP [4] it was 5 µM; with LNCaP [5], 3.3 µM; with Jurkat [6], 7 µM.
With `COc1ccccc1CCN1CCC[C@H]1COC(c1ccccc1)c1ccc(Cl)cc1` (some centres undefined), the IC50 was determined as 13 µM in the assay with MDA-MB-361 [1]; 3.8 µM in the assay with Jurkat [2]; 10 µM in the assay on MDA-MB-361 [3]; 12 µM in the assay with LNCaP [4]; 2.4 µM with LNCaP [5]; 1 µM in the assay with Jurkat [6].
With `COc1ccc(CCN2CCCCC2COC(c2ccccc2)c2ccc(Cl)cc2)cc1` (centres undefined), the IC50 in the assay with MDA-MB-361 [1] was 25 µM; in the assay on Jurkat [2], 11 µM; in the assay on MDA-MB-361 [3], 30 µM; in the assay with LNCaP [4], 10 µM; with LNCaP [5] it was 5 µM; in the assay on Jurkat [6], 3 µM.
Regarding `COc1ccc(CCN2CCC[C@H]2COC(c2ccc(OC)cc2)c2ccc(OC)cc2)cc1`, the IC50 in the assay with MDA-MB-361 [1] stood at 15 µM; in the assay on Jurkat [2], 13 µM; in the assay on MDA-MB-361 [3], 20 µM; in the assay on LNCaP [4] it was 10 µM; in the assay with LNCaP [5], 5.1 µM; with Jurkat [6] it was 15 µM.
For the compound `COc1ccc(CCCN2CCC[C@H]2COC(c2ccccc2)c2ccc(Cl)cc2)cc1` (some centres undefined), the IC50 in the assay on MDA-MB-361 [1] was 11 µM; with Jurkat [2], 4 µM; in the assay on MDA-MB-361 [3], 10 µM; in the assay with LNCaP [4], 30 µM; in the assay on LNCaP [5], 3.5 µM; with Jurkat [6] it was 1 µM.
With `COc1ccc(CCN2CCC(COC(c3ccc(Cl)cc3)c3ccc(Cl)cc3)CC2)cc1`, the IC50 in the assay with MDA-MB-361 [1] was found to be 7.1 µM; in the assay with Jurkat [2], 11.1 µM; in the assay with MDA-MB-361 [3], 20 µM; in the assay with LNCaP [4] it was 10 µM; in the assay with LNCaP [5] it was 3.4 µM; in the assay with Jurkat [6] it was 10 µM.
For the compound `COc1ccc(CN2CCC[C@H]2COC(c2ccccc2)c2ccc(Cl)cc2)cc1` (some centres undefined), the IC50 with MDA-MB-361 [1] was 30 µM; in the assay with Jurkat [2], 10 µM; in the assay on MDA-MB-361 [3], 30 µM; in the assay on LNCaP [7] it was “No effect”; in the assay on LNCaP [5] it was 7.7 µM; with Jurkat [6] it was 2 µM.
`COc1ccc(CCN2CCC[C@H]2COC(c2ccccc2)c2ccc(Cl)cc2)cc1` (some centres undefined): the IC50 in the assay on MDA-MB-361 [1] came to 10 µM; in the assay on Jurkat [2], 6 µM; in the assay with MDA-MB-361 [3] it was 10 µM; with LNCaP [4] it was 4 µM; in the assay on LNCaP [5], 4 µM.
Consider `COc1ccc(CCN2CCC[C@H]2COC(c2ccccc2)c2ccccc2)cc1`, for which the IC50 with MDA-MB-361 [1] amounted to 29 µM; in the assay with Jurkat [2], 12 µM; with MDA-MB-361 [3] it was 30 µM; in the assay on LNCaP [4], 30 µM; in the assay on LNCaP [5] it was 10 µM; in the assay on Jurkat [6] it was 10 µM.
For `COc1ccc(CCN2CCC[C@H]2COC(c2ccc(F)cc2)c2ccc(F)cc2)cc1`, the IC50 in the assay on MDA-MB-361 [1] worked out at 14 µM; in the assay with Jurkat [2], 5 µM; in the assay with MDA-MB-361 [3], 30 µM; with LNCaP [4] it was 10 µM; in the assay on LNCaP [5], 4 µM; in the assay on Jurkat [6], 3 µM.
In the case of `COc1ccc(CCN2CCCC(COC(c3ccccc3)c3ccc(Cl)cc3)C2)cc1` (centres undefined), the IC50 in the assay on MDA-MB-361 [1] is 13 µM; in the assay on Jurkat [2], 8.8 µM; with MDA-MB-361 [3], 30 µM; in the assay with LNCaP [4], 12 µM; with LNCaP [5], 6.8 µM; in the assay with Jurkat [6], 10 µM.
Turning to `COc1ccc(CCN2CCCC(COC(c3ccccc3)c3ccccc3)C2)cc1` (centres undefined), the IC50 in the assay with MDA-MB-361 [1] is 17.7 µM; with Jurkat [2], 13.8 µM; in the assay with MDA-MB-361 [3], 30 µM; in the assay with LNCaP [4], 15 µM; in the assay with LNCaP [5], 9.2 µM; in the assay on Jurkat [6], 8 µM.

(Values after ChEMBL document CHEMBL1146797, “Design, synthesis, and biological evaluation of novel T-Type calcium channel antagonists” (Bioorg Med Chem Lett, 2004).)
